Assay results reported in patent publication US20180148470A1, “CHOLIC ACID DERIVATIVE, AND PREPARATION METHOD AND MEDICAL USE THEREOF” (Jiangsu Hansoh Pharmaceutical Group Co., Ltd., priority 2015, published 2018).

How the values were obtained:
[1] = Pharmacokinetic test in rats; format: in vivo, Sprague-Dawley (SD) rats; conditions: male SD rats, intragastric administration of 10 mg/kg; for AUC(0-t) / Cmax / Tmax: Sprague-Dawley, rat, po, plasma; for AUC(0-t): read-out: area under the blood concentration-time curve AUC0-t; for Cmax: read-out: peak concentration Cmax; for Tmax: read-out: peak time of blood concentration tmax
Procedure: Pharmacokinetic Test in Rats
The pharmacokinetic study of the present invention was performed in rats. The pharmacokinetic behavior of the positive control INT-747 and a representative compound of the present invention, such as Example 14-β, was studied in rats, and their pharmacokinetic characteristics were evaluated.
(1) Three male Sprague-Dawley (SD) rats were used, which were supplied by Sippr-BK laboratory animal Co. Ltd. Animal Production License No. SOCK (Shanghai) 2008-0016.
(2) Then, 10 mg of the sample was weighed and added with 10 mL of 0.5% CMC-Na aqueous solution, the mixture was fully shaken to make a 1 mg/ml uniform solution, and the remaining liquid samples were used for quantitative analysis.
(3) Three male SD rats were intragastrically administered at 10 mg/kg with a volume of 10 mL/kg after fasting for one night.
(4) About 0.05 mL of underjaw intravenous blood was collected before and 0.5, 1.0, 2.0, 4.0, 6.0, 8.0, 24.0, 30.0 hours after administration, and then placed in a EDTA-K2 test tube. The blood was centrifuged at 6000 rpm for 5 minutes to isolate the plasma, which was stored at −80° C. The rats were feed 4 hours after administration.
(1) Instruments and Equipment: API 4000 triple quadrupole mass spectrometer, Applied Biosystems, USA; Shimadzu LC-20AD high performance liquid chromatography system, Shimadzu, Japan.
(2) Condition of chromatography: The chromatographic column was Phenomenex gemiu 5 um C18 50×4.6 mm; mobile phase was acetonitrile: 0.1% TFA aqueous solution (gradient elution); flow rate (ml/min) was 0.8 ml/min.

FXR = target: T1, FXR (Homo sapiens, UniProt Q96RI1); experiment: FXR reporter gene expression test (dual luciferase, FXR Gal4 reporter in HepG2 cells); format: cell-based; conditions: HepG2 cells transiently transfected with FXR Gal4 reporter, 18 hours
T1 sequence (Q96RI1 262-486 limits assumed): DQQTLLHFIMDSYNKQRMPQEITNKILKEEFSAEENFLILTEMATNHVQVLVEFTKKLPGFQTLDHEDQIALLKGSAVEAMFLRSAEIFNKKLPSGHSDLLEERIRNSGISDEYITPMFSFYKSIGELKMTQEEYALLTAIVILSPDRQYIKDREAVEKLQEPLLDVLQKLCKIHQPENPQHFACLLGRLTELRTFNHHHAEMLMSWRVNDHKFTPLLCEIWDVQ
From the text: FXR Reporter Gene Expression Test
To analyze the effect of testing compounds on FXR-regulated gene expression, we used Promega's dual luciferase assay system (Promega #E1980) to detect the effect of the compounds on the FXR reporter gene in HepG2 hepatoma cell line (ATCC #HB-8065), which was transiently transfected with the FXR Gal4 reporter gene fragment. Specific experimental methods are as follows:
1. HepG2 Cell Culture and Maintenance
Cells were digested and cells with appropriate density were grown in 10 mL complete medium and then cultivated for 24 hours under 37° C., 5% CO2 humidity conditions.
2. Cell planting and transfection. Transfection reagent was Fugene HD (Promega#E231A)
(1) The transfection mixture was prepared according to the following table
(2) The mixture in the tube was vigorously mixed and incubated at room temperature for 15 minutes;
(3) The cells were digested in the culture dish and counted;
(4) The cell suspension was diluted to the desired volume of 600,000/mL (96-well plates 100 μL/well);
(5) The required volume of the transfection mixture was added to the cell suspension, followed by plating at 100 μL/well;
(6) Incubated for 24 hours under 37° C., 5% CO2 humidity conditions.
3. Treatment of the Compound
(1) 10 mM of mother liquor of the compound was prepared and then serially diluted 3 times with DMSO;
(2) 10 μL of compound was added to 90 μL of complete medium (10×);
(3) 5 μL of the solution of the compound (21×) was added to each well;
(4) Incubated for 18 hours under 37° C., 5% CO2 humidity conditions.
The firefly luciferase and the renilla luciferase signal (Promega #E1980) were detected by Promega's dual-luciferase assay system.
(2) Calculating the agonist rate
Agonist rate=(X−Min)/(Max−Min)*100% • X represents the F/R value of each concentration; • Min represents the F/R value without adding compound; • Max represents the F/R value of the reference compound.
(3) EC50 was calculated according to GraphPrism 5.0

FXR receptor = target: T2, FXR receptor (Homo sapiens, UniProt Q96RI1); experiment: FXR receptor binding activity assay (TR-FRET; GST-FXR-LBD / SRC1 fragment); format: biochemical; conditions: FXR-LBD binding to SRC1 fragment, agonist rate
T2 construct: Prepared 2× GST-labeled FXR-LBD/anti-GST Eu mixture to the required volume, the concentration of GST-FXR-LBD was 6 nM; purchased Life Technology Invitrogen PV4835
T2 sequence (Q96RI1 262-486 limits assumed): T1 sequence (Q96RI1 262-486 limits assumed)
T2 sequence (Q15788 676-700 partner limits assumed): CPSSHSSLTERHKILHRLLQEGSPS
From the text: FXR Receptor Binding Activity Assay (Time-Resolved Fluorescence Detection Method TR-FRET Method)
To test the effect of the present compounds on FXR receptor binding, we selected the commercial FXR receptor binding activity assay kit to test the effect of the compounds on FXR and its binding protein fragments (LBD structural domain binds to SRC1 fragment) (kit supplier: Life Technology Invitrogen Catalog: PV4835; cisbio Catalog: 610SAXLA and 61GSTKLA). Specific method was described in the kit instructions. The operation was as follows:
1. Prepared 2× GST-labeled FXR-LBD/anti-GST Eu mixture to the required volume, the concentration of GST-FXR-LBD was 6 nM, Eu was 50 nL/well.
2. Prepared 2× biotin-labeled SRC1/[…] (SA-APC) mixture to the required volume, the concentration of SRC1 was 1000 nM, and […] was 50 nL/well.
3. 2× GST-FXR/Eu and SRC1/SA-APC were mixed in a proportion of 1:1.
4. 20 μL of a mixture of GST-FXR/Eu and SRC1/SA-APC was added to a 384-well plate containing the compounds to be tested.
5. Centrifuged for 1 minute at 1000 rpm; incubated for 180 minutes at room temperature.
6. Time-resolved fluorescence detection: EnVision reader.
(1) the value at 665 nm divided by the value at 615 nm;
(2) calculating the agonist rate
Agonist rate=(X−Min)/(Max−Min)*100% • X represents the 665/615 value for each concentration; • Min represents the 665/615 value without adding compound; • Max represents the 665/615 value of the reference compound.

For `CC[C@H]1[C@@H](O)[C@@H]2[C@H](CC[C@]3(C)[C@@H]([C@H](C)CCC(=O)O)CC[C@@H]23)[C@@]2(C)CC[C@@H](O)C[C@@H]12` [INT-747, reference compound], the AUC(0-t) [1] was 9030 ng·h/mL, the Cmax [1] was 4410 ng/mL and the Tmax [1] was 30 min.

For `CC[C@H]1[C@@H](O)C2C3CCC([C@H](C)CC4SC(=O)NC4=O)[C@@]3(C)CCC2[C@@]2(C)CC[C@@H](O)C[C@@H]12` (single isomer, unassigned) [Example 14-β], the AUC(0-t) [1] was 41800 ng·h/mL, the Cmax [1] was 7580 ng/mL and the Tmax [1] was 60 min. The “exposed quantity in the tested animals compared with positive control INT-747” value [1] was “significantly better than that of the positive control INT-747”, the EC50 (FXR) was 57 nM and the EC50 (FXR receptor) was 4 nM.
